Reference: ChEMBL document CHEMBL1201862, “PubChem BioAssay data set” (2004)
Activity calls are given as the source filed them.

What was measured:
[1] = cells; type: functional, cell-based
[2] = cells; type: functional, cell-based; remark: listed apart in the source
[3] = biological target: T1, Leucine aminopeptidase (Plasmodium falciparum 3D7, UniProt Q8IL11); experiment: P. falciparum M17LAP inhibitors, primary screen, biochemical, fluorogenic H-Leu-NHMec substrate, 1536-well (AID 1619); type: functional
T1 sequence (Q8IL11 whole entry): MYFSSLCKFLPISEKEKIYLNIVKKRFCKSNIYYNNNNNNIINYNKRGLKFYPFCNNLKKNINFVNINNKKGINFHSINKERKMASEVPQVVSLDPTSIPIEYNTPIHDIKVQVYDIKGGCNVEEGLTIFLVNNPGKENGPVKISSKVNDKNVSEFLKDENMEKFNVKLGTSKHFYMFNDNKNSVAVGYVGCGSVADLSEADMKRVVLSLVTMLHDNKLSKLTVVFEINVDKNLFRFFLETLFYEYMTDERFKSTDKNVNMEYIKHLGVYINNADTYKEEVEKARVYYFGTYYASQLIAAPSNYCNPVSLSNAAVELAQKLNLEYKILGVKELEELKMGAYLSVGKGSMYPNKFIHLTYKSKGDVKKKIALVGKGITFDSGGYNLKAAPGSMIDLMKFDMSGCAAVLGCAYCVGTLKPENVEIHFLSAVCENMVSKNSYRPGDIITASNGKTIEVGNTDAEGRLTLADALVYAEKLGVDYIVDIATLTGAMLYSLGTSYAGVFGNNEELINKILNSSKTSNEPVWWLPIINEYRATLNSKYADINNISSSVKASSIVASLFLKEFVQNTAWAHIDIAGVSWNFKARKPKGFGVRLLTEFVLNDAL

[4] = biological target: DNA dC->dU-editing enzyme APOBEC-3G (Homo sapiens, UniProt Q9HC16); experiment: Dose Response confirmation of small molecule APOBEC3G DNA Deaminase Inhibitors via a fluorescence-based single-stranded DNA deaminase assay. [Related pubchem assays (depositor defined):AID493012, AID493028]; type: functional
Chain of DNA dC->dU-editing enzyme APOBEC-3G (Q9HC16 whole entry): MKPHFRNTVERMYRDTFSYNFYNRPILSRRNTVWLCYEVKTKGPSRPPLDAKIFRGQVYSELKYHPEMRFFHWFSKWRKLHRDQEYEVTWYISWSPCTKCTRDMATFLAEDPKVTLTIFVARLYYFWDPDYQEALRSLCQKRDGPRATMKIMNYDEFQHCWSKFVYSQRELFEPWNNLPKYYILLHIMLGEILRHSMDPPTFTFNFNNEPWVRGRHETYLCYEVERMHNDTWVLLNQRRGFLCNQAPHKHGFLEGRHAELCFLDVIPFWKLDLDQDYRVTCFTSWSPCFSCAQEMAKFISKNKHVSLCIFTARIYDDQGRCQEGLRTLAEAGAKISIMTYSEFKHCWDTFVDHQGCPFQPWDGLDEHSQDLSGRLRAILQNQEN

[5] = biological target: DNA (cytosine-5)-methyltransferase 1 (Homo sapiens, UniProt P26358); experiment: DNMT1 methyltransferase inhibitors, confirmation, biochemical, fluorescent molecular beacon (AID 602386); type: functional
Chain of DNA (cytosine-5)-methyltransferase 1 (P26358 whole entry, the tested form may be a part): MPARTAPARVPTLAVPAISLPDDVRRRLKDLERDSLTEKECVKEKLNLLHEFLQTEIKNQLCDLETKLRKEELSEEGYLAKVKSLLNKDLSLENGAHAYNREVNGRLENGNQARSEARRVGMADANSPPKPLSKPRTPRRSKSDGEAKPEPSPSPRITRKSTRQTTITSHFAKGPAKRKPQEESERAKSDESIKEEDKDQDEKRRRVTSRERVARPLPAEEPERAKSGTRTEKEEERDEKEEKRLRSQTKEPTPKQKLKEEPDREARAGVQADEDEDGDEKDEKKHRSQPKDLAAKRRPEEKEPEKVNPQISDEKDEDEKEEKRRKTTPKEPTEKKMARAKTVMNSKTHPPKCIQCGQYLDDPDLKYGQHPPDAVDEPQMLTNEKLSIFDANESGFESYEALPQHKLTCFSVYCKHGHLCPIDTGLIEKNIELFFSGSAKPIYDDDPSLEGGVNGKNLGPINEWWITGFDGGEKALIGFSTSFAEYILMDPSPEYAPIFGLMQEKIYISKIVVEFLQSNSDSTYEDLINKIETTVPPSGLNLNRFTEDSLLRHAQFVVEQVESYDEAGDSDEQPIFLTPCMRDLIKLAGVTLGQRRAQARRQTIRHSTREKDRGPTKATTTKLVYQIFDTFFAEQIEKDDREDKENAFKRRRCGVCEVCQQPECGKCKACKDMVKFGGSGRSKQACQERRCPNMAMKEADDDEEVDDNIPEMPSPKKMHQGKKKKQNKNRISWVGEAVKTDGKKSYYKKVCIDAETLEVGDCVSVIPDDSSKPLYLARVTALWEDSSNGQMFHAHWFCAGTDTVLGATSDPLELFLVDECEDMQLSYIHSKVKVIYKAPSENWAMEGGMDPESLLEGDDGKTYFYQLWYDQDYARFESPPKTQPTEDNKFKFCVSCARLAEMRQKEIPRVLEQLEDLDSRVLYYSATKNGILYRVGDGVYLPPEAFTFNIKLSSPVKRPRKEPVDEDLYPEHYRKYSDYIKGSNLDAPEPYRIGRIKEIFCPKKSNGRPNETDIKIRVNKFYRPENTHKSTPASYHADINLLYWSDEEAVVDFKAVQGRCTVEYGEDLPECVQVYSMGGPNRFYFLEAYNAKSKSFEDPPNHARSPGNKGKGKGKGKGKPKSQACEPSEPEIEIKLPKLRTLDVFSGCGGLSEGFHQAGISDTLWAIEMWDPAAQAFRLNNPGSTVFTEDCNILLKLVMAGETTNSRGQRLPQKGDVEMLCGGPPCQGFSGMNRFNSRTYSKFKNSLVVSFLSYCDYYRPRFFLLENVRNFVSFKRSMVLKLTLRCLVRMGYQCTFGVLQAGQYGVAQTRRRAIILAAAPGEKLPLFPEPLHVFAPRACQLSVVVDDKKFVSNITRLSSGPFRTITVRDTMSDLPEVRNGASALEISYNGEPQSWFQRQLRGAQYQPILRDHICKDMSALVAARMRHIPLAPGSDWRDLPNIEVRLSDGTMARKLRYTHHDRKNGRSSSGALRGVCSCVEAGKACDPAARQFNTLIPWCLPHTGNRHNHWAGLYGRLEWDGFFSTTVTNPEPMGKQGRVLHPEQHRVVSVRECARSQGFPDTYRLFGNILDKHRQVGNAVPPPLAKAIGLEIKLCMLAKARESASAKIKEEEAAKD

[6] = biological target: T2, Carboxy-terminal domain RNA polymerase II polypeptide A small phosphatase 1 (Homo sapiens, UniProt Q9GZU7); experiment: inhibitors of CTDSP1, concentration-response testing, biochemical assay, absorbance-based, actives from ultra-high-throughput screening (AID 540297); type: functional
T2 sequence (Q9GZU7 whole entry): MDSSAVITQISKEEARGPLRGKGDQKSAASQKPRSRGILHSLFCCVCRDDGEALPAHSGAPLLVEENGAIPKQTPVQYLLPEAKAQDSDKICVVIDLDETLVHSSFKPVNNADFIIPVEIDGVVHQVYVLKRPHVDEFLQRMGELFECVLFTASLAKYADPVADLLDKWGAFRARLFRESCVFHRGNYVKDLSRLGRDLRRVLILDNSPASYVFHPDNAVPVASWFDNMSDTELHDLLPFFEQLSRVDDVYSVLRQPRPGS

[7] = biological target: ORF 73 (Human herpesvirus 8, UniProt O40947); experiment: inhibitors of C-LANA binding to LBS DNA, dose response, biochemical, fluorescence polarization, cherry-picked samples (AID 504725); set-up: species or system Human gammaherpesvirus 8;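 further: fluorescence polarization of a labeled DNA duplex reporting LANA DNA binding; potency is for inhibitors that block LANA binding to the DNA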
[8] = biological target: T3, Long-chain-fatty-acid--AMP ligase FadD28 (Mycobacterium tuberculosis, UniProt P9WQ59); experiment: Fluorescence polarization aasay to screen for inhibitors that compete for the binding of FadD28 to a bisubstrate Measured in Biochemical System Using Plate Reader - 2147-01_Inhibitor_Dose_CherryPick_Activity.; type: functional, Mycobacterium tuberculosis H37Rv
T3 sequence (P9WQ59 whole entry): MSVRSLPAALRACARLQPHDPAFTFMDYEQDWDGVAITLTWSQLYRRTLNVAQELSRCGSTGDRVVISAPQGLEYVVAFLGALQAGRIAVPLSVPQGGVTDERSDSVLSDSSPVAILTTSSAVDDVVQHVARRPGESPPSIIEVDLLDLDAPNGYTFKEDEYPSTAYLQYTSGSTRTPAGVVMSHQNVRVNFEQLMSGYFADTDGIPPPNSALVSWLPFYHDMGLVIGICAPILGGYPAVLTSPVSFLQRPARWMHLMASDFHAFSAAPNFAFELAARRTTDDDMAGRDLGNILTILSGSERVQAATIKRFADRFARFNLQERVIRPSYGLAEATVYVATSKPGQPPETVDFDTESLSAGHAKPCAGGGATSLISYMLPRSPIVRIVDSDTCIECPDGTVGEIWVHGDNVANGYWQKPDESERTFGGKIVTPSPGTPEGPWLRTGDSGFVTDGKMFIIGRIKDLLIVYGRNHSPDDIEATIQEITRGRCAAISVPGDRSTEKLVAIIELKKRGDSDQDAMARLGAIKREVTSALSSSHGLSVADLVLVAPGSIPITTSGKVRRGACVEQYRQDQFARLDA

[9] = biological target: Voltage-dependent T-type calcium channel subunit alpha-1H (Homo sapiens, UniProt O95180); type: functional;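 further: channel activity triggered by adding a high calcium stimulation buffer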
Chain of Voltage-dependent T-type calcium channel subunit alpha-1H (O95180 whole entry): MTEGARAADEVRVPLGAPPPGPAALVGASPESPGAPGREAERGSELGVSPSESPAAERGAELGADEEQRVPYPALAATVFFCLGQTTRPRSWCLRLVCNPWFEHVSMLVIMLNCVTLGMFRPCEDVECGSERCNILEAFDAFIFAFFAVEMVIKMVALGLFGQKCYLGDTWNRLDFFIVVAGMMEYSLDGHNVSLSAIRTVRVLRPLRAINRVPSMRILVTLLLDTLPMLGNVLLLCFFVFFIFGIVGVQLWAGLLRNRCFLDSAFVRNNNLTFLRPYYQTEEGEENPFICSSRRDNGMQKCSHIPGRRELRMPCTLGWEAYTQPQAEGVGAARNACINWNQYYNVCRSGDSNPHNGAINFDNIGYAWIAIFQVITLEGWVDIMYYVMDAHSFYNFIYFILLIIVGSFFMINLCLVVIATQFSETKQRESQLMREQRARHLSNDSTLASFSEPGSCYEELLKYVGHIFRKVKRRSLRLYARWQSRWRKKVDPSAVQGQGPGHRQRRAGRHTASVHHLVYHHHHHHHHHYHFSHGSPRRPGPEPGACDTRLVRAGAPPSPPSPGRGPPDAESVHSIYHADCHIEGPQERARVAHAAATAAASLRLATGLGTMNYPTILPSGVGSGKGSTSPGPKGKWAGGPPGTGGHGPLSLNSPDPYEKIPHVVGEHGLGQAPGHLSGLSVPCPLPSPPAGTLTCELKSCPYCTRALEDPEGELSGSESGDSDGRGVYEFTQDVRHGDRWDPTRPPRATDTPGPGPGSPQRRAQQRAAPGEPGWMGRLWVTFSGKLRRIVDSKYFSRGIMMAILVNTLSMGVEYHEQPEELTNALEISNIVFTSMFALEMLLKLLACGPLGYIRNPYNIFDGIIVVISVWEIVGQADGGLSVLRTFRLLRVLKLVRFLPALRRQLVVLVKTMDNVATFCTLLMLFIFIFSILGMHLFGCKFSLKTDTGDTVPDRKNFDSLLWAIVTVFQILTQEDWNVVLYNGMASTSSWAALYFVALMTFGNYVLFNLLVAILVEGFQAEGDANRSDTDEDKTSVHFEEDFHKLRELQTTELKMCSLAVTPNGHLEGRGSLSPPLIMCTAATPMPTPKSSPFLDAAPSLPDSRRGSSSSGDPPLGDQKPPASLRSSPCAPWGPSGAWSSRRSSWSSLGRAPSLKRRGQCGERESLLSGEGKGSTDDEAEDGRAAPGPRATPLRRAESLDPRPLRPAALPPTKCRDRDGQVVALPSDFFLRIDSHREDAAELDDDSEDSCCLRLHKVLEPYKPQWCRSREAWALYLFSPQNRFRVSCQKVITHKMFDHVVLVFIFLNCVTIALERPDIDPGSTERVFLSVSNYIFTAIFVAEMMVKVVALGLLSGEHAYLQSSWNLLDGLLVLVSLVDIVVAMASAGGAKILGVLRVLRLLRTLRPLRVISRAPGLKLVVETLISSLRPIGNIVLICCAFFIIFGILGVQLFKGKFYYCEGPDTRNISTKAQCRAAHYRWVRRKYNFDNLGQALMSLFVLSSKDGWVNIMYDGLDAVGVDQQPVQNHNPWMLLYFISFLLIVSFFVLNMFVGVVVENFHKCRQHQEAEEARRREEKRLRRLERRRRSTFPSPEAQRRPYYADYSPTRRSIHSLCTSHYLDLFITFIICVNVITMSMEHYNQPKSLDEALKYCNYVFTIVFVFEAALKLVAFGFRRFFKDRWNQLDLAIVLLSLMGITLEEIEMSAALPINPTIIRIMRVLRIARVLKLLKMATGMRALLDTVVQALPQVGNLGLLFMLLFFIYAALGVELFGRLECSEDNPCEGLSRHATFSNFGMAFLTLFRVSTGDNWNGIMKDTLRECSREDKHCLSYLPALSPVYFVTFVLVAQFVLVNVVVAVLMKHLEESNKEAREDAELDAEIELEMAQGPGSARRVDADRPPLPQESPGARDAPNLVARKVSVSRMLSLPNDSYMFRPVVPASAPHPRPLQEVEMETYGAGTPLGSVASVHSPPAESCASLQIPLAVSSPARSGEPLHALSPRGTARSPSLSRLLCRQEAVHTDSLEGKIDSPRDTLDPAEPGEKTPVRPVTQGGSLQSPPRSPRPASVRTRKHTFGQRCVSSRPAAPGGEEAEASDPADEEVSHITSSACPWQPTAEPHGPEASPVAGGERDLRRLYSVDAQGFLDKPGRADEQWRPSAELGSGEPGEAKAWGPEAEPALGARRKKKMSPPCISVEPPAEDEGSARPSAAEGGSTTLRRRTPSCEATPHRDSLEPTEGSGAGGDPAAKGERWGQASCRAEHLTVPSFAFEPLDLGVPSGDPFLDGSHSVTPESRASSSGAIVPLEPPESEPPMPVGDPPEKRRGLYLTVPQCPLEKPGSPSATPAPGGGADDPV

[10] = Luminescence Cell-Based Dose Retest to Confirm Inhibitors of Cancer Stem Cells. [Related pubchem assays (depositor defined):AID2717, AID2721]; type: functional; conditions: Homo sapiens
[11] = Shn3 3'UTR reporter inhibitors, dose response, cell-based, Clone20 osteoblasts, firefly luciferase, cherry-picked (AID 624132); type: functional;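 further: firefly luciferase luminescence from reporter carrying the Shn3 3'UTR in osteoblasts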
[12] = HepG2 cell cytotoxicity, dose response, cytotoxicity control for Shn3 inhibitor project, CellTiter-Glo, cherry-picked (AID 624134); type: functional, cell-based
[13] = system: BJ; experiment: cytotoxicity toward BJ-TERT-LT-ST fibroblasts, dose response, cell-based, RAS-independent, luminescence (AID 1935); type: functional; conditions: Homo sapiens;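 further: BJ fibroblasts immortalized with TERT plus LT and ST oncogenes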
[14] = control 3'UTR Renilla luciferase suppression, dose response, counter-screen for Shn3 inhibitor project, cell-based, Clone20-Shn3RL, cherry-picked (AID 624133); type: functional
[15] = system: BJ; experiment: cytotoxicity toward BJ-TERT fibroblasts, dose response, cell-based, RAS-independent, luminescence (AID 1933); type: functional; conditions: Homo sapiens
[16] = system: BJ; experiment: cells; type: functional, cell-based; conditions: Homo sapiens
[17] = cytotoxicity toward NIH3T3 fibroblasts, dose response, counter-screen, cell-based, ATP luminescence, mouse fibroblasts (AID 2010); type: functional;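 further: cells exposed to compound for about 90 hours before reading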
[18] = cytotoxicity toward DRD oncogenic fibroblasts, dose response, cell-based, non-viral oncogenic, luminescence (AID 1934); type: functional; conditions: Homo sapiens
[19] = biological target: T4, Hexokinase HKDC1 (Homo sapiens, UniProt Q2TB90); experiment: HKDC1 hexokinase inhibitors, dose response, biochemical, W721R variant (AID 504729); type: functional
T4 sequence (Q2TB90 whole entry): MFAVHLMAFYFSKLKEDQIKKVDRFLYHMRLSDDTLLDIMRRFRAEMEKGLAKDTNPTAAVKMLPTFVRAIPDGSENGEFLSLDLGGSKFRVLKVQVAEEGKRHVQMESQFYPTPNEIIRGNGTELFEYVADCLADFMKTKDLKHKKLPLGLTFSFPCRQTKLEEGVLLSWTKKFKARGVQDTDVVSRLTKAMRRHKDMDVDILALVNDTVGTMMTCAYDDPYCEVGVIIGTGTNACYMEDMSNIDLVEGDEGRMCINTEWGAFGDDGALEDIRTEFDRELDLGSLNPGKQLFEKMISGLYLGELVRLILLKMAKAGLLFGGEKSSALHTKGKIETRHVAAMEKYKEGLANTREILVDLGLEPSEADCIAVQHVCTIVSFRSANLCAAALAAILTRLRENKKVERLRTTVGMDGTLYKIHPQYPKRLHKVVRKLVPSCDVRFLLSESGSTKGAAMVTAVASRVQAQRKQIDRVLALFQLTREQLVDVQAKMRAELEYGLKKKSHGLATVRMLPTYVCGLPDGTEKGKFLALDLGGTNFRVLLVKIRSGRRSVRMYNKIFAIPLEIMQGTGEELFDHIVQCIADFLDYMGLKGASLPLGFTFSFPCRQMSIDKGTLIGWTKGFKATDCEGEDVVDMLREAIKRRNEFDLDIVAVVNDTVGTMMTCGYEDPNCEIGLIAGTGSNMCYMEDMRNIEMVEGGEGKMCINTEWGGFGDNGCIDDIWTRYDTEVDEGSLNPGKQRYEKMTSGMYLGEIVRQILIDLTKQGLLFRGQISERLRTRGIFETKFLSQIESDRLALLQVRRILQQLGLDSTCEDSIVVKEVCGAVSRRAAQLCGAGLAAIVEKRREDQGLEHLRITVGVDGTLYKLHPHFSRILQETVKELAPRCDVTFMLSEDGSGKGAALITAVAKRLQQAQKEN

[20] = inhibitors of intracellular T. cruzi replication, confirmation, NIH3T3 host cells, beta-gal luminescence (AID 2044); type: functional, cell-based;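 further: intracellular parasites grown in NIH/3T3 mouse fibroblasts as host cells; luminescent beta-galactosidase reporter signal from transgenic T. cruzi replicating inside host cells; inhibitors lower the luminescence signal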
[21] = biological target: T5, Histone-lysine N-methyltransferase NSD2 (Homo sapiens, UniProt O96028); type: biochemical
T5 sequence (O96028 whole entry): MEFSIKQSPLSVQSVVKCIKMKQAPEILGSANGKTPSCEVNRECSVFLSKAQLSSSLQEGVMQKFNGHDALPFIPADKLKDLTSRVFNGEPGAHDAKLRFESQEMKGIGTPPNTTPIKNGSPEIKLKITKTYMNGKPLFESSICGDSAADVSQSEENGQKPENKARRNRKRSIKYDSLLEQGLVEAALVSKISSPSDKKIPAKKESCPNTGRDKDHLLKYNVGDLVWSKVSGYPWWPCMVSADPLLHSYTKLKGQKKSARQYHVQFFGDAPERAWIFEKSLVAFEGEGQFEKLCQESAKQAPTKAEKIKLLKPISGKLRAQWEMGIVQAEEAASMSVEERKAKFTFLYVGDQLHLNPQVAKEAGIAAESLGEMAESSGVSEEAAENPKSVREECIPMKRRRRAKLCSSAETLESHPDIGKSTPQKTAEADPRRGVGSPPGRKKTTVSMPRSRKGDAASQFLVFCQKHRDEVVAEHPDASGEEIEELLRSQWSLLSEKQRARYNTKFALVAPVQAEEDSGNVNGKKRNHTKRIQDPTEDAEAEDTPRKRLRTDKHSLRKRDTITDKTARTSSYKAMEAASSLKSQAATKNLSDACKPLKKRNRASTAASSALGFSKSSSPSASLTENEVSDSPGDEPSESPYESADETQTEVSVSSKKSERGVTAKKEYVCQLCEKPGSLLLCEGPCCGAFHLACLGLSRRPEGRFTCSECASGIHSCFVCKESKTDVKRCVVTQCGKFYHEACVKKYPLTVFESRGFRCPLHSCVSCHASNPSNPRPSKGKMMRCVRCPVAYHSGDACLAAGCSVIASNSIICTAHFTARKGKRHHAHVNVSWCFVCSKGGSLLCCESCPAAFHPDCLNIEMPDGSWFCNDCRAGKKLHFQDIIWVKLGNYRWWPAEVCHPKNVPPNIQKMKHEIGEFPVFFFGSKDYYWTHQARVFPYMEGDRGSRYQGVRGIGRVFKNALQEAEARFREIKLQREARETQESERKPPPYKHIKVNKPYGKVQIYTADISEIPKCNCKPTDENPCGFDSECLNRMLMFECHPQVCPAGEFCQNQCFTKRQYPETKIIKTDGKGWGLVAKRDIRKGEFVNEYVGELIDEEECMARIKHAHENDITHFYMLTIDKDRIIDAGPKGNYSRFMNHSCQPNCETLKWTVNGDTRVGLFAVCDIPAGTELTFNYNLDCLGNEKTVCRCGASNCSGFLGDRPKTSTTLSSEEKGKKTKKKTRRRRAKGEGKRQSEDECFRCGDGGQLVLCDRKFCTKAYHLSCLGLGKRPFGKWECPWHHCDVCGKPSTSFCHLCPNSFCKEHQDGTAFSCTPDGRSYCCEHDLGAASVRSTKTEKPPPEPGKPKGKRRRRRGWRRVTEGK

[22] = biological target: T6, CAAX prenyl protease 2 (Saccharomyces cerevisiae S288c, UniProt Q03530); type: biochemical
T6 sequence (Q03530 whole entry): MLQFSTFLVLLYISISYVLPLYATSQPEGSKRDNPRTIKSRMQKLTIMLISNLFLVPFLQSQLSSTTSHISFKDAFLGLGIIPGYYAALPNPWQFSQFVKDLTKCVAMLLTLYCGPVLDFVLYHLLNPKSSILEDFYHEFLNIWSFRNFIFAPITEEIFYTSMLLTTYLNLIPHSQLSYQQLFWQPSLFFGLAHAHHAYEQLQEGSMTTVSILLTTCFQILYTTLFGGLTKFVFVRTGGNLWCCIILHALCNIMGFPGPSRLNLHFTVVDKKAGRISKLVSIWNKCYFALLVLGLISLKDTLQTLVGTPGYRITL

[23] = biological target: Trypsin (Sus scrofa, UniProt P00761); experiment: porcine trypsin inhibitors, dose response, selectivity assay for Rce1 protease inhibitor project, biochemical, quenched peptide fluorescence, cherry-pick (AID 488789)
Chain of Trypsin (P00761 whole entry): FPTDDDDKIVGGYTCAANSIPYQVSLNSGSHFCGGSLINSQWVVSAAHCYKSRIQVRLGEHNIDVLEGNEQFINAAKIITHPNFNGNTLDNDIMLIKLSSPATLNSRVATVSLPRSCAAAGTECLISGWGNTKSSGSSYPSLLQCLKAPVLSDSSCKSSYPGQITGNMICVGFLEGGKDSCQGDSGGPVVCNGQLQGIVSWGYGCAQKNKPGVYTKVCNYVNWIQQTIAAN

COc1cccc(Nc2nnc(S)s2)c1
EC50 [1]: > 350 µM (not active) | EC50 [2]: > 350 µM (not active) | IC50 [3]: 6.54 µM (active) | IC50 [4]: > 100 µM (inactive)

Cc1ccccc1NC(=O)CN1C(=O)N/C(=C\c2cccn2-c2cccc(C(=O)O)c2)C1=O
IC50 [5]: 6.37 µM (active) | IC50 [6]: 4.42 µM (active) | AC50 [7]: 74.7 µM (active) | AC50 [8]: 55.3 µM (active)

O=C(NC1CCCC1)C(c1ccccc1)N(Cc1ccc2c(c1)OCO2)C(=O)Cc1cccs1 (stereo unspecified)
EC50 [9]: 1.52 µM (active)

COc1ccc(Cn2nnnc2C(C(C)C)N(Cc2ccco2)Cc2cccs2)cc1 (stereo unspecified)
AC50 [10]: 2.02 µM (active) | EC50 [9]: 6.56 µM (active)

CCN(CC)CCNc1cc(C)nc2c1C(=O)C(=O)C=C2N1CCCCC1
AC50 [11]: 6.61 µM (active) | AC50 [12]: 5.54 µM (active) | EC50 [13]: 8.38 µM (active) | AC50 [14]: 6.45 µM (active) | EC50 [15]: 5.91 µM (inconclusive) | EC50 [16]: 10.2 µM (active) | EC50 [1]: > 350 µM (not active) | EC50 [2]: > 350 µM (not active) | EC50 [17]: > 60 µM (not active) | EC50 [18]: 9.47 µM (active) | IC50 [19]: 13.2 µM (active) | EC50 [20]: 1.44 µM (active) | AC50 [21]: > 20 µM (inactive)

CCN(CC)Cc1c(O)ccc2c(=O)c(-c3ccccc3OC)coc12
AC50 [22]: 13.8 µM (active) | AC50 [23]: 21.4 µM (active)
